Laboratory results as given in US4393228A, “Epoxysuccinic acid derivatives” (Taisho Pharmaceutical Co., Ltd., priority 1977, dated 1983).

molecular target: T1, papain (Carica papaya, UniProt P00784); assay: Papain inhibitory activity (milk casein digestion); type: biochemical; conditions: papain 80 μg/ml 0.5 ml, cysteine, pH 6.8, 1% milk casein, 40° C., 10 minutes
T1 construct: purchased Sigma Chem. Co
T1 sequence (P00784 134-345): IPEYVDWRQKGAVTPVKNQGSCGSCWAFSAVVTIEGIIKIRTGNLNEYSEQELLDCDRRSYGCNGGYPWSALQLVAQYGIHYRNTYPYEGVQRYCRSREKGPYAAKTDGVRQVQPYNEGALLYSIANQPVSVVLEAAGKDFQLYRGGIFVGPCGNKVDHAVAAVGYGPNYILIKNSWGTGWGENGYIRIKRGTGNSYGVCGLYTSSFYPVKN
Experimental: Papain inhibitory activity of the compounds of this invention was assayed as follows: To 0.5 ml of a solution of papain (80 μg/ml, Sigma Chem. Co., 2x cry.), were added 0.25 ml of 40 mM cysteine dissolved in 20 mM disodium ethylenediamine tetraacetic acid solution adjusted pH to 6.8 with sodium hydroxide and 0.25 ml of 33 mM phosphate buffer (pH 6.8) with or without inhibitor. After incubation at 40° C. for 15 minutes, the resulting mixture was added to 5 ml of 1% milk casein solution in the same buffer as described above, and further incubated at 40° C. for 10 minutes. Then the mixture was mixed with 5 ml of 0.44 M trichloroacetic acid solution and followed by filtration with a sheet of Toyo filter paper No. 4. The extinction of the filtrate was read at 280 nm. The percent inhibition was calculated from the formula, 100 x (B-A)/B; wherein B stands for the absorbance without inhibitor and A for the absorbance with inhibitor. The compound Nos. in Table 1 are as defined in Examples as described hereinafter.

| SMILES | ID50 (amount of inhibitor for 50% inhibition) |
| --- | --- |
| C[C@H]1CCCC[C@H]1OC(=O)[C@@H]1O[C@H]1C(=O)O[C@@H]1CCCC[C@@H]1C (relative stereo) [EP-3, di-2'-cis-methylcyclohexyl epoxysuccinate] | 2.12 γ |
| C[C@H]1CCCC[C@H]1OC(=O)[C@@H]1O[C@H]1C(=O)O (relative stereo) [EP-4, 2'-cis-methylcyclohexyl potassium epoxysuccinate] | 0.09 γ |
| C[C@@H]1CCCC[C@H]1OC(=O)[C@@H]1O[C@H]1C(=O)O[C@@H]1CCCC[C@H]1C (relative stereo) [EP-5, di-2'-trans-methylcyclohexyl epoxysuccinate] | 2.36 γ |
| C[C@@H]1CCCC[C@H]1OC(=O)[C@@H]1O[C@H]1C(=O)O (relative stereo) [EP-6, 2'-trans-methylcyclohexyl potassium epoxysuccinate] | 0.09 γ |
| O=C(O[C@@H]1CCCC[C@H]1Cl)[C@@H]1O[C@H]1C(=O)O[C@@H]1CCCC[C@H]1Cl (relative stereo) [EP-7, di-2'-trans-chlorocyclohexyl epoxysuccinate] | 2.25 γ |
| O=C(O)[C@@H]1O[C@H]1C(=O)O[C@@H]1CCCC[C@H]1Cl (relative stereo) [EP-8, 2'-trans-chlorocyclohexyl potassium epoxysuccinate] | 0.07 γ |
| C[C@H]1CC[C@H](OC(=O)[C@@H]2O[C@H]2C(=O)O[C@H]2CC[C@H](C)CC2)CC1 (relative stereo) [EP-15, di-4'-trans-methylcyclohexyl epoxysuccinate] | 1.69 γ |
| C[C@H]1CC[C@H](OC(=O)[C@@H]2O[C@H]2C(=O)O)CC1 (relative stereo) [EP-16, 4'-trans-methylcyclohexyl potassium epoxysuccinate] | 0.08 γ |
| C[C@H]1CC[C@@H](OC(=O)[C@@H]2O[C@H]2C(=O)O)CC1 (relative stereo) [EP-18, 4'-cis-methylcyclohexyl potassium epoxysuccinate] | 0.08 γ |
| O=C(O[C@H]1CC[C@H](Cl)CC1)[C@@H]1O[C@H]1C(=O)O[C@H]1CC[C@H](Cl)CC1 (relative stereo) [EP-19, di-4'-trans-chlorocyclohexyl epoxysuccinate] | 2.01 γ |
| O=C(O)[C@@H]1O[C@H]1C(=O)O[C@H]1CC[C@H](Cl)CC1 (relative stereo) [EP-20, 4'-trans-chlorocyclohexyl potassium epoxysuccinate] | 0.06 γ |
| O=C(OC1CC1)[C@@H]1O[C@H]1C(=O)OC1CC1 (relative stereo) [EP-27, dicyclopropyl epoxysuccinate] | 20.00 γ |
| O=C(O)[C@@H]1O[C@H]1C(=O)OC1CC1 (relative stereo) [EP-28, cyclopropyl potassium epoxysuccinate] | 0.80 γ |
| O=C(O[C@@H]1CCC[C@H]1Br)[C@@H]1O[C@H]1C(=O)O[C@@H]1CCC[C@H]1Br (relative stereo) [EP-33, di-2'-trans-bromocyclopentylepoxysuccinate] | 3.20 γ |
| O=C(O)[C@@H]1O[C@H]1C(=O)O[C@@H]1CCC[C@H]1Br (relative stereo) [EP-34, 2'-trans-bromocyclopentyl potassium epoxysuccinate] | 0.07 γ |
| O=C(OC1CCCCCCC1)[C@@H]1O[C@H]1C(=O)OC1CCCCCCC1 (relative stereo) [EP-35, dicyclooctyl epoxysuccinate] | 0.98 γ |
| O=C(O)[C@@H]1O[C@H]1C(=O)OC1CCCCCCC1 (relative stereo) [EP-36, cyclooctyl potassium epoxysuccinate] | 0.07 γ |
| O=C(OC1C2CC3CC(C2)CC1C3)[C@@H]1O[C@H]1C(=O)OC1C2CC3CC(C2)CC1C3 (relative stereo) [EP-37, di-2-adamantyl epoxysuccinate] | 0.22 γ |
| O=C(O)[C@@H]1O[C@H]1C(=O)OC1C2CC3CC(C2)CC1C3 (relative stereo) [EP-38, 2-adamantyl potassium epoxysuccinate] | 0.06 γ |
| O=C(OCC1CC1)[C@@H]1O[C@H]1C(=O)OCC1CC1 (relative stereo) [EP-39, dicyclopropanemethyl epoxysuccinate] | 4.39 γ |

| SMILES | ID50 (amount of inhibitor for 50% inhibition) |
| --- | --- |
| O=C(O)[C@@H]1O[C@H]1C(=O)OCC1CC1 (relative stereo) [EP-40, cyclopropanemethyl potassium epoxysuccinate] | 0.34 γ |
| O=C(OCC1CCCCC1)[C@@H]1O[C@H]1C(=O)OCC1CCCCC1 (relative stereo) [EP-41, dicyclohexanemethyl epoxysuccinate] | 0.27 γ |
| O=C(O)[C@@H]1O[C@H]1C(=O)OCC1CCCCC1 (relative stereo) [EP-42, cyclohexanemethyl potassium epoxysuccinate] | 0.06 γ |
| O=C(OCC1CCCC1)[C@@H]1O[C@H]1C(=O)OCC1CCCC1 (relative stereo) [EP-43, dicyclopentanemethyl epoxysuccinate] | 0.45 γ |
| O=C(O)[C@@H]1O[C@H]1C(=O)OCC1CCCC1 (relative stereo) [EP-44, cyclopentanemethyl potassium epoxysuccinate] | 0.07 γ |
| O=C(OCC12CC3CC(CC(C3)C1)C2)[C@@H]1O[C@H]1C(=O)OCC12CC3CC(CC(C3)C1)C2 (relative stereo) [EP-47, di-1-adamantanemethyl epoxysuccinate] | 0.25 γ |
| O=C(O)[C@@H]1O[C@H]1C(=O)OCC12CC3CC(CC(C3)C1)C2 (relative stereo) [EP-48, 1-adamantanemethyl potassium epoxysuccinate] | 0.08 γ |
| O=C(OCCC12CC3CC(CC(C3)C1)C2)[C@@H]1O[C@H]1C(=O)OCCC12CC3CC(CC(C3)C1)C2 (relative stereo) [EP-49, di-2-(1-adamantane)ethyl epoxysuccinate] | 0.85 γ |
| O=C(O)[C@@H]1O[C@H]1C(=O)OCCC12CC3CC(CC(C3)C1)C2 (relative stereo) [EP-50, 2-(1-adamantane)ethyl potassium epoxysuccinate] | 0.09 γ |
| O=C(OC1CC2CCC1CC2)[C@@H]1O[C@H]1C(=O)OC1CC2CCC1CC2 (relative stereo) [EP-51, dibicyclo [2,2,2] octyl epoxysuccinate] | 0.30 γ |
| O=C(O)[C@@H]1O[C@H]1C(=O)OC1CC2CCC1CC2 (relative stereo) [EP-52, bicyclo [2,2,2] octyl potassium epoxysuccinate] | 0.07 γ |
| O=C(OCCC1CCCC1)[C@@H]1O[C@H]1C(=O)OCCC1CCCC1 (relative stereo) [EP-59, di-2-cyclopentaneethyl epoxysuccinate] | 0.18 γ |
| O=C(O)[C@@H]1O[C@H]1C(=O)OCCC1CCCC1 (relative stereo) [EP-60, 2-cyclopentaneethylpotassium epoxysuccinate] | 0.10 γ |
| O=C(OCCC1CCCCC1)[C@@H]1O[C@H]1C(=O)OCCC1CCCCC1 (relative stereo) [EP-61, di-2-cyclohexaneethyl epoxysuccinate] | 1.18 γ |
| O=C(O)[C@@H]1O[C@H]1C(=O)OCCC1CCCCC1 (relative stereo) [EP-62, 2-cyclohexaneethyl potassium epoxysuccinate] | 0.08 γ |
| O=C(OCCCC1CCCC1)[C@@H]1O[C@H]1C(=O)OCCCC1CCCC1 (relative stereo) [EP-63, di-3-cyclopentanepropyl epoxysuccinate] | 54.82 γ |
| O=C(O)[C@@H]1O[C@H]1C(=O)OCCCC1CCCC1 (relative stereo) [EP-64, 3-cyclopentanepropyl potassium epoxysuccinate] | 0.10 γ |
| O=C(OCCCC1CCCCC1)[C@@H]1O[C@H]1C(=O)OCCCC1CCCCC1 (relative stereo) [EP-65, di-3-cyclohexanepropyl epoxysuccinate] | 69.44 γ |
| O=C(O)[C@@H]1O[C@H]1C(=O)OCCCC1CCCCC1 (relative stereo) [EP-66, 3-cyclohexanepropyl potassium epoxysuccinate] | 0.08 γ |
